# System: U937 monocytoid cells
# Assay: TUNEL assay, dAd, adenosine and adenine dose ranging (Example 24)
# Format: cell-based
# Details: 2 days, no dCF
# Experimental: U937 monocytoid cells were cultured in the presence of dAd at various concentrations of dAd (0, 50, 75, 100, 250 and 1000 micromoles/liter). The cells were incubated in dAd for 2 days. At the end of the treatment period, the cells were harvested for analysis by a TUNEL assay, a flow-cytometry-based method to quantify the percentage of cells that have undergone apoptosis. The level of apoptosis expressed as “% FITC shift”. The level of cell cycle arrest is expressed as “% PI shift”. As a positive control, the cells were exposed to 5 mM camptothecin for 2 days.
# [1] = drug 50 uM, listed as dAd (Acros)
# [2] = drug 50 uM, listed as dAd (Sigma)
# [3] = drug 100 uM, listed as dAd (Acros)
# [4] = drug 100 uM, listed as dAd (Sigma)
# [5] = drug 250 uM, listed as dAd (Acros)
# [6] = drug 250 uM, listed as dAd (Sigma)
# [7] = drug 1000 uM, listed as dAd (Acros)
# [8] = drug 1000 uM, listed as dAd (Sigma)
smiles,measurement,setting,value
"Nc1ncnc2c1ncn2[C@H]1C[C@H](O)[C@@H](CO)O1 [dAd, 2′-deoxyadenosine]",concentration at which cell cycle arrest begins,,75 µM
same,concentration at which apoptosis is induced,progressively more at 250 and 1000,100 µM
same,% FITC Shift,[1],0.7%
same,% PI Shift,[1],2.9%
same,% FITC Shift,[2],1.5%
same,% PI Shift,[2],3.2%
same,% FITC Shift,drug 75 uM,1.8%
same,% PI Shift,"drug 75 uM, listed as dAd (Acros)",7.1%
same,% PI Shift,"drug 75 uM, listed as dAd (Sigma)",8.8%
same,% FITC Shift,[3],3.5%
same,% PI Shift,[3],9.8%
same,% FITC Shift,[4],9.0%
same,% PI Shift,[4],12.1%
same,% FITC Shift,[5],54.1%
same,% PI Shift,[5],14.6%
same,% FITC Shift,[6],65.8%
same,% PI Shift,[6],12.0%
same,% FITC Shift,[7],80.2%
same,% PI Shift,[7],32.6%
same,% FITC Shift,[8],79.2%
same,% PI Shift,[8],29.5%

# Source: patent publication US20070142317A1, “Topical composition for treatment of skin disorders” (QLT USA, Inc., priority 2003, published 2007)
